Reference: ChEMBL document CHEMBL5325403, “Benzenesulfonyl thiazoloimines as unique multitargeting antibacterial agents towards Enterococcus faecalis” (Eur J Med Chem, 2023)
In brackets after ≈: the same amount, converted by molar mass.

test system: Staphylococcus aureus; test: Antibacterial activity against methicillin-resistant Staphylococcus aureus N315 assessed as inhibition of bacterial growth by continuous dilution method; type: functional

SMILES | MIC [mg/L]
CC(=O)Nc1ccc(S(=O)(=O)/C(=C\c2ccc(F)cc2)C(=O)c2nccs2)cc1 | 128 (≈ 297 µM)
CC(=O)Nc1ccc(S(=O)(=O)/C(=C\c2ccc(Cl)cc2Cl)C(=O)c2nccs2)cc1 | 128 (≈ 266 µM)
Nc1ccc(S(=O)(=O)C/C(=N/OCc2ccc(Cl)cc2)c2nccs2)cc1 | 64 (≈ 152 µM)
CC(=O)Nc1ccc(S(=O)(=O)C/C(=N/OCc2ccc(Cl)cc2Cl)c2nccs2)cc1 | 64 (≈ 128 µM)
Nc1ccc(S(=O)(=O)Nc2nccs2)cc1 [SULFATHIAZOLE] | 64 (≈ 251 µM)
CC(=O)Nc1ccc(S(=O)(=O)C/C(=N/NC(=O)c2ccccc2)c2nccs2)cc1 | 256 (≈ 579 µM)
Nc1ccc(S(=O)(=O)C/C(=N/OCc2ccc(Cl)cc2Cl)c2nccs2)cc1 | 64 (≈ 140 µM)

test system: Acinetobacter baumannii; test: Antibacterial activity against Acinetobacter baumannii assessed as inhibition of bacterial growth by continuous dilution method; type: functional

SMILES | MIC [mg/L]
CC(=O)Nc1ccc(S(=O)(=O)/C(=C\c2ccc(F)cc2)C(=O)c2nccs2)cc1 | 64 (≈ 149 µM)
CC(=O)Nc1ccc(S(=O)(=O)/C(=C\c2ccc(Cl)cc2Cl)C(=O)c2nccs2)cc1 | 256 (≈ 532 µM)
Nc1ccc(S(=O)(=O)C/C(=N/OCc2ccc(Cl)cc2)c2nccs2)cc1 | 64 (≈ 152 µM)
CC(=O)Nc1ccc(S(=O)(=O)C/C(=N/OCc2ccc(Cl)cc2Cl)c2nccs2)cc1 | 128 (≈ 257 µM)
Nc1ccc(S(=O)(=O)Nc2nccs2)cc1 [SULFATHIAZOLE] | 128 (≈ 501 µM)
CC(=O)Nc1ccc(S(=O)(=O)C/C(=N/NC(=O)c2ccccc2)c2nccs2)cc1 | 256 (≈ 579 µM)
Nc1ccc(S(=O)(=O)C/C(=N/OCc2ccc(Cl)cc2Cl)c2nccs2)cc1 | 64 (≈ 140 µM)

test system: Staphylococcus aureus; test: Antibacterial activity against Staphylococcus aureus ATCC 29213 assessed as inhibition of bacterial growth by continuous dilution method; type: functional

SMILES | MIC [mg/L]
CC(=O)Nc1ccc(S(=O)(=O)/C(=C\c2ccc(F)cc2)C(=O)c2nccs2)cc1 | 128 (≈ 297 µM)
CC(=O)Nc1ccc(S(=O)(=O)/C(=C\c2ccc(Cl)cc2Cl)C(=O)c2nccs2)cc1 | 256 (≈ 532 µM)
Nc1ccc(S(=O)(=O)C/C(=N/OCc2ccc(Cl)cc2)c2nccs2)cc1 | 128 (≈ 303 µM)
CC(=O)Nc1ccc(S(=O)(=O)C/C(=N/OCc2ccc(Cl)cc2Cl)c2nccs2)cc1 | 128 (≈ 257 µM)
Nc1ccc(S(=O)(=O)Nc2nccs2)cc1 [SULFATHIAZOLE] | 128 (≈ 501 µM)
CC(=O)Nc1ccc(S(=O)(=O)C/C(=N/NC(=O)c2ccccc2)c2nccs2)cc1 | 256 (≈ 579 µM)
Nc1ccc(S(=O)(=O)C/C(=N/OCc2ccc(Cl)cc2Cl)c2nccs2)cc1 | 64 (≈ 140 µM)

test system: Escherichia coli; test: Antibacterial activity against Escherichia coli assessed as inhibition of bacterial growth by continuous dilution method; type: functional

SMILES | MIC [mg/L]
CC(=O)Nc1ccc(S(=O)(=O)/C(=C\c2ccc(F)cc2)C(=O)c2nccs2)cc1 | 128 (≈ 297 µM)
CC(=O)Nc1ccc(S(=O)(=O)/C(=C\c2ccc(Cl)cc2Cl)C(=O)c2nccs2)cc1 | 256 (≈ 532 µM)
Nc1ccc(S(=O)(=O)C/C(=N/OCc2ccc(Cl)cc2)c2nccs2)cc1 | 16 (≈ 37.9 µM)
CC(=O)Nc1ccc(S(=O)(=O)C/C(=N/OCc2ccc(Cl)cc2Cl)c2nccs2)cc1 | 64 (≈ 128 µM)
Nc1ccc(S(=O)(=O)Nc2nccs2)cc1 [SULFATHIAZOLE] | 256 (≈ 1000 µM)
CC(=O)Nc1ccc(S(=O)(=O)C/C(=N/NC(=O)c2ccccc2)c2nccs2)cc1 | 16 (≈ 36.2 µM)
Nc1ccc(S(=O)(=O)C/C(=N/OCc2ccc(Cl)cc2Cl)c2nccs2)cc1 | 32 (≈ 70.1 µM)

test system: Pseudomonas aeruginosa; test: Antibacterial activity against Pseudomonas aeruginosa assessed as inhibition of bacterial growth by continuous dilution method; type: functional

SMILES | MIC [mg/L]
CC(=O)Nc1ccc(S(=O)(=O)/C(=C\c2ccc(F)cc2)C(=O)c2nccs2)cc1 | 256 (≈ 595 µM)
CC(=O)Nc1ccc(S(=O)(=O)/C(=C\c2ccc(Cl)cc2Cl)C(=O)c2nccs2)cc1 | 128 (≈ 266 µM)
Nc1ccc(S(=O)(=O)C/C(=N/OCc2ccc(Cl)cc2)c2nccs2)cc1 | 64 (≈ 152 µM)
CC(=O)Nc1ccc(S(=O)(=O)C/C(=N/OCc2ccc(Cl)cc2Cl)c2nccs2)cc1 | 64 (≈ 128 µM)
Nc1ccc(S(=O)(=O)Nc2nccs2)cc1 [SULFATHIAZOLE] | 128 (≈ 501 µM)
CC(=O)Nc1ccc(S(=O)(=O)C/C(=N/NC(=O)c2ccccc2)c2nccs2)cc1 | 128 (≈ 289 µM)
Nc1ccc(S(=O)(=O)C/C(=N/OCc2ccc(Cl)cc2Cl)c2nccs2)cc1 | 64 (≈ 140 µM)

test system: Pseudomonas aeruginosa; test: Antibacterial activity against Pseudomonas aeruginosa ATCC 27853 assessed as inhibition of bacterial growth by continuous dilution method; type: functional

SMILES | MIC [mg/L]
CC(=O)Nc1ccc(S(=O)(=O)/C(=C\c2ccc(F)cc2)C(=O)c2nccs2)cc1 | 64 (≈ 149 µM)
CC(=O)Nc1ccc(S(=O)(=O)/C(=C\c2ccc(Cl)cc2Cl)C(=O)c2nccs2)cc1 | 128 (≈ 266 µM)
Nc1ccc(S(=O)(=O)C/C(=N/OCc2ccc(Cl)cc2)c2nccs2)cc1 | 8 (≈ 19 µM)
CC(=O)Nc1ccc(S(=O)(=O)C/C(=N/OCc2ccc(Cl)cc2Cl)c2nccs2)cc1 | 32 (≈ 64.2 µM)
Nc1ccc(S(=O)(=O)Nc2nccs2)cc1 [SULFATHIAZOLE] | 512 (≈ 2010 µM)
CC(=O)Nc1ccc(S(=O)(=O)C/C(=N/NC(=O)c2ccccc2)c2nccs2)cc1 | 4 (≈ 9.04 µM)
Nc1ccc(S(=O)(=O)C/C(=N/OCc2ccc(Cl)cc2Cl)c2nccs2)cc1 | 16 (≈ 35.1 µM)

test system: Klebsiella pneumoniae; test: Antibacterial activity against Klebsiella pneumoniae assessed as inhibition of bacterial growth by continuous dilution method; type: functional

SMILES | MIC [mg/L]
CC(=O)Nc1ccc(S(=O)(=O)/C(=C\c2ccc(F)cc2)C(=O)c2nccs2)cc1 | 128 (≈ 297 µM)
CC(=O)Nc1ccc(S(=O)(=O)/C(=C\c2ccc(Cl)cc2Cl)C(=O)c2nccs2)cc1 | 128 (≈ 266 µM)
Nc1ccc(S(=O)(=O)C/C(=N/OCc2ccc(Cl)cc2)c2nccs2)cc1 | 16 (≈ 37.9 µM)
CC(=O)Nc1ccc(S(=O)(=O)C/C(=N/OCc2ccc(Cl)cc2Cl)c2nccs2)cc1 | 64 (≈ 128 µM)
Nc1ccc(S(=O)(=O)Nc2nccs2)cc1 [SULFATHIAZOLE] | 128 (≈ 501 µM)
CC(=O)Nc1ccc(S(=O)(=O)C/C(=N/NC(=O)c2ccccc2)c2nccs2)cc1 | 256 (≈ 579 µM)
Nc1ccc(S(=O)(=O)C/C(=N/OCc2ccc(Cl)cc2Cl)c2nccs2)cc1 | 32 (≈ 70.1 µM)

test system: Enterococcus faecalis; test: Antibacterial activity against Enterococcus faecalis assessed as inhibition of bacterial growth by continuous dilution method; type: functional

SMILES | MIC [mg/L]
CC(=O)Nc1ccc(S(=O)(=O)/C(=C\c2ccc(F)cc2)C(=O)c2nccs2)cc1 | 128 (≈ 297 µM)
CC(=O)Nc1ccc(S(=O)(=O)/C(=C\c2ccc(Cl)cc2Cl)C(=O)c2nccs2)cc1 | 128 (≈ 266 µM)
Nc1ccc(S(=O)(=O)C/C(=N/OCc2ccc(Cl)cc2)c2nccs2)cc1 | 8 (≈ 19 µM)
CC(=O)Nc1ccc(S(=O)(=O)C/C(=N/OCc2ccc(Cl)cc2Cl)c2nccs2)cc1 | 64 (≈ 128 µM)
Nc1ccc(S(=O)(=O)Nc2nccs2)cc1 [SULFATHIAZOLE] | 128 (≈ 501 µM)
CC(=O)Nc1ccc(S(=O)(=O)C/C(=N/NC(=O)c2ccccc2)c2nccs2)cc1 | 32 (≈ 72.3 µM)
Nc1ccc(S(=O)(=O)C/C(=N/OCc2ccc(Cl)cc2Cl)c2nccs2)cc1 | 16 (≈ 35.1 µM)

test system: Staphylococcus aureus; test: Antibacterial activity against Staphylococcus aureus assessed as inhibition of bacterial growth by continuous dilution method; type: functional

SMILES | MIC [mg/L]
CC(=O)Nc1ccc(S(=O)(=O)/C(=C\c2ccc(F)cc2)C(=O)c2nccs2)cc1 | 128 (≈ 297 µM)
CC(=O)Nc1ccc(S(=O)(=O)/C(=C\c2ccc(Cl)cc2Cl)C(=O)c2nccs2)cc1 | 128 (≈ 266 µM)
Nc1ccc(S(=O)(=O)C/C(=N/OCc2ccc(Cl)cc2)c2nccs2)cc1 | 64 (≈ 152 µM)
CC(=O)Nc1ccc(S(=O)(=O)C/C(=N/OCc2ccc(Cl)cc2Cl)c2nccs2)cc1 | 128 (≈ 257 µM)
Nc1ccc(S(=O)(=O)Nc2nccs2)cc1 [SULFATHIAZOLE] | 128 (≈ 501 µM)
CC(=O)Nc1ccc(S(=O)(=O)C/C(=N/NC(=O)c2ccccc2)c2nccs2)cc1 | 128 (≈ 289 µM)
Nc1ccc(S(=O)(=O)C/C(=N/OCc2ccc(Cl)cc2Cl)c2nccs2)cc1 | 64 (≈ 140 µM)

test system: Staphylococcus aureus; test: Antibacterial activity against Staphylococcus aureus ATCC 25923 assessed as inhibition of bacterial growth by continuous dilution method; type: functional

SMILES | MIC [mg/L]
CC(=O)Nc1ccc(S(=O)(=O)/C(=C\c2ccc(F)cc2)C(=O)c2nccs2)cc1 | 256 (≈ 595 µM)
CC(=O)Nc1ccc(S(=O)(=O)/C(=C\c2ccc(Cl)cc2Cl)C(=O)c2nccs2)cc1 | 64 (≈ 133 µM)
Nc1ccc(S(=O)(=O)C/C(=N/OCc2ccc(Cl)cc2)c2nccs2)cc1 | 64 (≈ 152 µM)
CC(=O)Nc1ccc(S(=O)(=O)C/C(=N/OCc2ccc(Cl)cc2Cl)c2nccs2)cc1 | 128 (≈ 257 µM)
Nc1ccc(S(=O)(=O)Nc2nccs2)cc1 [SULFATHIAZOLE] | 64 (≈ 251 µM)
CC(=O)Nc1ccc(S(=O)(=O)C/C(=N/NC(=O)c2ccccc2)c2nccs2)cc1 | 32 (≈ 72.3 µM)
Nc1ccc(S(=O)(=O)C/C(=N/OCc2ccc(Cl)cc2Cl)c2nccs2)cc1 | 64 (≈ 140 µM)

test system: Escherichia coli; test: Antibacterial activity against Escherichia coli ATCC 25922 assessed as inhibition of bacterial growth by continuous dilution method; type: functional

SMILES | MIC [mg/L]
CC(=O)Nc1ccc(S(=O)(=O)/C(=C\c2ccc(F)cc2)C(=O)c2nccs2)cc1 | 64 (≈ 149 µM)
CC(=O)Nc1ccc(S(=O)(=O)/C(=C\c2ccc(Cl)cc2Cl)C(=O)c2nccs2)cc1 | 256 (≈ 532 µM)
Nc1ccc(S(=O)(=O)C/C(=N/OCc2ccc(Cl)cc2)c2nccs2)cc1 | 8 (≈ 19 µM)
CC(=O)Nc1ccc(S(=O)(=O)C/C(=N/OCc2ccc(Cl)cc2Cl)c2nccs2)cc1 | 16 (≈ 32.1 µM)
Nc1ccc(S(=O)(=O)Nc2nccs2)cc1 [SULFATHIAZOLE] | 128 (≈ 501 µM)
CC(=O)Nc1ccc(S(=O)(=O)C/C(=N/NC(=O)c2ccccc2)c2nccs2)cc1 | 64 (≈ 145 µM)
Nc1ccc(S(=O)(=O)C/C(=N/OCc2ccc(Cl)cc2Cl)c2nccs2)cc1 | 16 (≈ 35.1 µM)
